# Data reported in US10918620B2, “Use of statins for periodontal disease and bone regeneration” (priority 2012, dated 2021).
# What was measured:
# [1] = test system: Human PBMC stimulated with PHA (T cells); assay: Proliferation of T cells evaluation (CellTrace Violet, flow cytometry); type: cell-based; conditions: PHA 25 μg/ml, 4 days; FIG. 2
# Procedure: The specific objectives of this assay were to evaluate the degree of cell toxicity (cell viability measured in dead % of T cells) and the level of T cell proliferation under a specific stimulus in the presence of: Human PBMC derived from healthy control donors were stimulated with PHA, 25 μg/ml, in presence or absence of Atorvastatin (AT) in various formulations: irradiated (ATi) or non-irradiated (ATni) Atorvastatin, soluble or toothpaste. […] Later cells were harvested and stained with anti-CD4 antibody conjugated to FITC and the samples were analyzed by flow cytometer Beckman Coulter XL.
# [2] = test system: release of cytokines and neutrophil adhesion to venous endothelium; conditions: pretreatment; patients undergoing coronary artery bypass surgery, bypass, or cardiopulmonary graft; cited from earlier work
# [3] = test system: supragingival bacterial plaque and gingival inflammation; conditions: clinical results, mouthwash; cited from earlier work
# [4] = test system: 52 bacteria isolated from subgingival plaque; conditions: cited from earlier work
# periodontal disease = assay: Concurrent cohort study of systemic statin therapy: periodontal clinical parameters (BOP, PISA); type: in vivo, human; conditions: patients taking statins (Atorvastatin 20 mg every 24 hours, systemic); 6 months
# Procedure: A concurrent cohort study was perform, with two groups of patients, some exposed to statin therapy and some not exposed to statin therapy. Patient submitted to statin therapy received Atorvastatin 20 mg, every 24 hours, indicated as part of a preventive cardiologic therapy.
# The eligible patients were those that meet the following inclusion criteria: a) informed consent, b) over 35 years, c) with at least 14 natural teeth in the mouth (excluding third molars), d) have some degree of periodontal disease.
# Measures were taken when starting the study and after 6 months for both groups of patients. The examination included probing depth (PD), clinical attachment level (CAL) and bleeding on probing index (BOP).
# Periodontal probing was performed to each tooth at 6 sites (mesiovestibular, mediovestibular, distovestibular, mesiolingual/palatal, mediolingual/palatal and distolingual/palatal). CAL was defined as the distance from the cementoenamel junction to the pocket bottom. […] BI was determined by assigning a “+” sign to the presence of bleeding on probing in vestibular and/or palatal of the examined tooth and with a “−” sign to the absence of bleeding. […]
# Periodontal Inflamed Surface Area (PISA) was also calculated using data insertion loss, gingival recession and bleeding on probing. […]
# [5] = test system: IL-6, IL-10, C-reactive protein (CRP) in GCF; assay: Cohort study of systemic statin therapy: inflammation biomarkers in gingival crevicular fluid by Elisa; type: in vivo, human
# From the text: Measurements at Gingival Crevicular Fluid Level (GCF).
# Upon confirmation of periodontal diagnosis, samplings of GCF were taken by standard procedures. These are described below:
# Two sites were selected from each quadrant which PD is higher. After isolating the tooth with cotton balls, supra-gingival plaque was removed with a curette without touching the gingival margin. Crevicular site was gently dried with air. The GCF was collected with paper cones. The paper points were inserted into the sulcus/pocket until feeling a medium resistance and were left for 40 seconds. Cones contaminated with saliva or blood were excluded. Later the paper cones were placed in a tube. GCF samples were storage at −80° C.
# IL-6, IL-10, and C-reactive protein (CRP) were measured as inflammation biomarkers. Measurements were performed through Elisa test. Measurements were performed at the start of the study and after 6 months for both groups of patients, with and without indication of statins.
structure (smiles),measurement,setting,value
"CC(C)c1c(C(=O)Nc2ccccc2)c(-c2ccccc2)c(-c2ccc(F)cc2)n1CC[C@@H](O)C[C@@H](O)CC(=O)O [Soluble ATi, Atorvastatin]",T cell proliferation (immunomodulatory behavior),[1],reduces immune cell proliferation
CC(C)c1c(C(=O)Nc2ccccc2)c(-c2ccccc2)c(-c2ccc(F)cc2)n1CC[C@@H](O)C[C@@H](O)CC(=O)O [atorvastatin],release of cytokines and neutrophil adhesion to venous endothelium,[2],significantly reduce the release of cytokines and neutrophil adhesion to venous endothelium
[H]/N=C(\N/C(=N/[H])NCCCCCCNC(=N)NC(=N)Nc1ccc(Cl)cc1)Nc1ccc(Cl)cc1 [chlorhexidine],decreased levels of gingival inflammation,[3],45%
same,decreased levels of supragingival bacterial plaque,[3],55%
same,antimicrobial resistance,[4],has not been detected
same,concentration at which all bacteria isolated from patients with periodontitis were inhibited,[4],250 mg/mL
"CC(C)c1c(C(=O)Nc2ccccc2)c(-c2ccccc2)c(-c2ccc(F)cc2)n1CC[C@@H](O)C[C@@H](O)CC(=O)O [statins, Atorvastatin]",reduction of area of periodontal inflammation measured by the PISA index,periodontal disease,58.66%
same,reduction of bleeding on probing index (BOP),periodontal disease,60.89%
same,"levels of IL-6 in GCF, average","[5]; patients consuming statins (Atorvastatin 20 mg every 24 hours), patients without statins 4.8 pg/ml",0.47 pg/mL
same,reduction of IL-6 in GCF,[5]; patients consuming statins vs patients without statins use,90.1%
same,levels of IL-10 in GCF,"[5]; patients taking statins, average in patients not consuming statins 1.23 pg/ml",no IL-10 could be detected
same,reduction of levels of CRP (C-reactive protein) in GCF,[5]; patients taking systemic statins,93%
